Patent US7968561B2, “Steroidal compounds as steroid sulphatase inhibitors” (Sterix Limited, priority 2006, dated 2011)
pIC50: −log10 of the molar value.

How the values were obtained:
[1] = biological target: T1, dehydroepiandrosterone sulphatase (DHA-STS) (Rattus norvegicus, UniProt P15589); settings: administered orally or subcutaneously; cited from earlier work
T1 construct: host or cells: rat liver
T1 sequence (P15589 20-577): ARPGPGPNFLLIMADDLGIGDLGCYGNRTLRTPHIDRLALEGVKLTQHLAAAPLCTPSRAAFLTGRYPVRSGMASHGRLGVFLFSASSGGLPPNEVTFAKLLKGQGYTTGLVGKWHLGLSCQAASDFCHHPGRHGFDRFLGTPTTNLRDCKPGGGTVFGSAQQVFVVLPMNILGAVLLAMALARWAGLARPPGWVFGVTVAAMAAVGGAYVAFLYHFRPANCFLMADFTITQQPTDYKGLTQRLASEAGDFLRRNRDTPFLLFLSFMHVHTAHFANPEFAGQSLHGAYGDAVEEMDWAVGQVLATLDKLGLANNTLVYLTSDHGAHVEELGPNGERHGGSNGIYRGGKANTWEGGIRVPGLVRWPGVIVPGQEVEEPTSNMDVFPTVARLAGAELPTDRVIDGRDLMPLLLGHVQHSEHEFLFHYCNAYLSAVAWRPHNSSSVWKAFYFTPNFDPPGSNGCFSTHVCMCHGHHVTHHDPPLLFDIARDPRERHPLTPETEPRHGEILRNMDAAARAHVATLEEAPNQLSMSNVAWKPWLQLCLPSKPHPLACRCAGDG

[2] = biological target: T2, E1-STS (Rattus norvegicus, UniProt P15589); settings: administered orally or subcutaneously; cited from earlier work
T2 construct: host or cells: rat liver
T2 sequence (P15589 20-577): T1 sequence (P15589 20-577)

[3] = rats; cited from earlier work
[4] = biological target: T3, E1-STS (Homo sapiens, UniProt P08842); set-up: dose or concentration left out as unconfirmed; settings: intact MCF-7 cells; cited from earlier work
T3 construct: endogenous in cells; host or cells: intact MCF-7 cells
T3 sequence (P08842 22-583): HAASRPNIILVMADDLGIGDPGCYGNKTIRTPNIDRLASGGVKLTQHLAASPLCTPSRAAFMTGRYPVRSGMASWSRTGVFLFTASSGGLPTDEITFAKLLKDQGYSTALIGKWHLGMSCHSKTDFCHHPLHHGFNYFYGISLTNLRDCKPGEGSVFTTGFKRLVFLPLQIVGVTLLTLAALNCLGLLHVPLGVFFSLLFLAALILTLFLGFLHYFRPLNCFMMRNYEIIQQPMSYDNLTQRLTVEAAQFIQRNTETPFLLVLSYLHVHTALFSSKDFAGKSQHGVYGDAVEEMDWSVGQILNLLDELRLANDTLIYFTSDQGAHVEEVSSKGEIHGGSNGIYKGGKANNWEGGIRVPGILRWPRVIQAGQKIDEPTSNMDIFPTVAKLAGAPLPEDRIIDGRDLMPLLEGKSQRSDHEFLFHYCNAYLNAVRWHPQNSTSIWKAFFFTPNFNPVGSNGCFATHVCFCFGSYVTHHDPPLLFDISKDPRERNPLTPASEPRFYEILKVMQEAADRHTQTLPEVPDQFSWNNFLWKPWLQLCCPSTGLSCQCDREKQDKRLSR

[5] = biological target: T4, STS (Mus musculus, UniProt P50427); experiment: Liver STS activity in MCF-7STS xenograft mice; format: in vivo; settings: Study 2: 1 mg/kg p.o. once per week
T4 construct: from tissue; host or cells: liver of MF-1 nude mice, homogenate
T4 sequence (P50427 23-624): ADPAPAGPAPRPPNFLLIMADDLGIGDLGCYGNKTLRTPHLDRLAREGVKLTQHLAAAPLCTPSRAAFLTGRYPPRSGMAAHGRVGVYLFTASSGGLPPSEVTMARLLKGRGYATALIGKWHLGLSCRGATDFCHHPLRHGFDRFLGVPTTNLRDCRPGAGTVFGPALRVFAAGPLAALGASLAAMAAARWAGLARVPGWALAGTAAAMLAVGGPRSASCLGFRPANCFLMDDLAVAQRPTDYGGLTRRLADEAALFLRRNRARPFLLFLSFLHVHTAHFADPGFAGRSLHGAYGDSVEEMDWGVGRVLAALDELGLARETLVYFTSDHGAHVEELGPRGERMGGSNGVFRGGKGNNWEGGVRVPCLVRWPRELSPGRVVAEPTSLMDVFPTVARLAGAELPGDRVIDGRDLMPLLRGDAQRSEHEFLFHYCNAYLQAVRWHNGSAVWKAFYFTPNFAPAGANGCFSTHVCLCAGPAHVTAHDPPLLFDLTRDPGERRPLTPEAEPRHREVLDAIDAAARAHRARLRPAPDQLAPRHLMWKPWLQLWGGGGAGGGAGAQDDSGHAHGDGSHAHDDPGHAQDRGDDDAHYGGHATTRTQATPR
Description: (§1) Ovariectomised, athymic female MF-1 nude mice (nu/nu) (age 6-8 weeks) were obtained from Harlan Olac. Twenty four hours before the inoculation of MCF-7STS cells animals were injected s.c. with estradiol sulphate (E2S). On the day of inoculation 5×10^6 MCF-7STS cells (50 μl in Matrigel) were injected s.c. into the right flank of the mice. After cell inoculation mice were injected with E2S (100 μg/50 μl) and received another injection of these steroids 24 h later. Mice then received E2S 3 times per week until the end of the study. When tumours had reached approximately 80 mm^3 dosing was initiated with compounds being administered orally (100 μl; vehicle 10% THF: 90% propylene glycol) at 1 mg/kg. Tumour measurements and the weight of animals were recorded weekly. Samples of tumour and liver tissues together with blood were collected at a number of time points after the cessation of dosing.
Samples of tumour or liver tissues were homogenised in phosphate buffered saline (pH 7.4 containing 250 mM sucrose). Duplicate aliquots were incubated for 4 h with [^3H-E1S] […] An aliquot of the toluene was removed and the ^3H and ^14C radioactivity measured by liquid scintillation spectrometry. The mass of oestrone sulphate hydrolysed was calculated form the ^3H counts detected, corrected for procedural losses.

[6] = test system: MCF-7STS cells (MCF-7 cells over expressing STS); experiment: Growth of E2S-stimulated MCF-7STS xenograft tumours in nude mice; format: in vivo; settings: Study 2: 1 mg/kg p.o. once per week for 7 weeks
Description: Ovariectomised, athymic female MF-1 nude mice (nu/nu) (age 6-8 weeks) were obtained from Harlan Olac. Twenty four hours before the inoculation of MCF-7STS cells animals were injected s.c. with estradiol sulphate (E2S). On the day of inoculation 5×10^6 MCF-7STS cells (50 μl in Matrigel) were injected s.c. into the right flank of the mice. After cell inoculation mice were injected with E2S (100 μg/50 μl) and received another injection of these steroids 24 h later. Mice then received E2S 3 times per week until the end of the study. […] Tumour measurements and the weight of animals were recorded weekly. Samples of tumour and liver tissues together with blood were collected at a number of time points after the cessation of dosing.
Tumours were measured weekly and their volumes calculated using the equation length×width^2/2.
Student's t test was used to assess the significance of the differences in tumour volumes for the different groups.

[7] = biological target: T5, STS (Rattus norvegicus, UniProt P15589); experiment: STS activity in rat livers 15 days after a single p.o. dose; format: in vivo; settings: rat liver
T5 construct: from tissue; host or cells: rat liver
T5 sequence (P15589 20-577): T1 sequence (P15589 20-577)

[8] = biological target: T6, steroid sulphatase (STS) (Homo sapiens, UniProt P08842); experiment: IC50 for steroid sulphatase inhibition measured in JEG-3 cells; format: cell-based
T6 construct: endogenous in cells; host or cells: JEG-3 cells
T6 sequence (P08842 22-583): T3 sequence (P08842 22-583)

[9] = Plasma oestradiol concentrations by radioimmunoassay; format: in vivo, mice; settings: Study 2: once weekly dosing, extended period after cessation of dosing
Description: as §1
Plasma oestradiol concentrations were measured by a specific radioimmunoassay procedure.

For `C[C@]12CC[C@@H]3c4ccc(OS(N)(=O)=O)cc4CC[C@H]3[C@@H]1CCC2=O` [EMATE, estrone-3-O-sulfamate], the “inhibition of rat liver DHA-STS activity” value [1] is listed as 99%, the “inhibition of rat liver E1-STS activity” value [2] is listed as 99% and the “oral uterotrophic activity relative to oestradiol” value [3] is listed as 100 times. The “inhibition of E1-STS activity” value [4] was “more than 99%”.

With `NS(=O)(=O)Oc1ccc2c3c(c(=O)oc2c1)CCCCC3` [STX64] the “reduction of liver STS activity” value [5] was 25-50% and the tumour growth [6] was “ineffective”.

For `CCCN1C(=O)CC2C3CCc4cc(OS(N)(=O)=O)ccc4C3CC[C@]2(C)C1=O` (some centres unmarked) [STX213], the STS activity recovered [7] was 69%, the “inhibition of STS activity” value [7] was 31% and the pIC50 [8] was 9.74.

In the case of `C[C@]12CCC3c4ccc(OS(N)(=O)=O)cc4CCC3C1CC(=O)N(CCC(F)(F)F)C2=O` (some centres unmarked) [STX1938, 3-Sulfomoyloxy-N-(3,3,3-trifluoropropyl)-16,17-seco-Estra-1,3,5(10)-triene-16,17-imide], the “inhibition of liver STS” value [5] was “almost complete inhibition” and the plasma oestradiol levels [9] was “significantly reduced”.
